Assay results taken from PMC8508960, “Ruthenium Half-Sandwich Type Complexes with Bidentate Monosaccharide Ligands Show Antineoplastic Activity in Ovarian Cancer Cell Models through Reactive Oxygen Species Production” (International Journal of Molecular Sciences, 2021).
Where “and” joins values, the source holds several entries; their conditions need not be identical. Identical values can stand only once. Entries after “also recorded” stand apart in the source; their conditions may differ.

Experiments:
[1] = test system: A2780 cells; experiment: SRB assay on A2780 cells with or without 3 µM rucaparib; type: cell-based, human; details: 48 h; for IC50: vehicle (no rucaparib)
Procedure: (§1) The SRB accumulation assay assesses protein content in a sample, and it was used to assess cell proliferation. The SRB accumulation assay was performed similarly to [68]. Cells were seeded in 96-well plates. The next day, cells were treated with the compounds for 48 h in the concentrations indicated in a cell incubator. At the end of treatment, cells were fixed with 10% trichloroacetic acid (TCA). Fixed cells were stained with SRB (0.4% m/v dissolved in 1% acetic acid) for 60 min. Fixed cells were washed in 1% acetic acid three times; acetic acid was removed, and cells were left to dry. Protein-bound SRB was released by adding 100 µL of 10 mM Tris base. Plates were measured in a plate photometer (Thermo Scientific Multiscan GO spectrophotometer, Waltham, MA, USA) at 540 nm. On each plate, wells were designed to contain untreated cells. In calculations, the readings for these wells were considered as 1, and all readings were expressed relative to these values.
(§2) Statistical analysis was performed using Graphpad Prism version 8.0.1. Values were tested for normal distribution using the D’Agostino and Pearson normality test. When necessary, values were log-normalized or were normalized using the Box–Cox normalization method, as indicated in the figure captions. Nonlinear regression was performed using the built-in “[Inhibitor] vs. response—variable slope (four parameters), least square fit” utility of Graphpad that yielded IC50 and Hill slope values.

[2] = test system: Capan2 (pancreatic adenocarcinoma); experiment: SRB proliferation assay (48 h) on Capan2 cells; type: cell-based; details: nonlinear regression
Procedure: (§3) Cells were cultured under standard cell culture conditions, 37 °C, 5% CO2, humidified atmosphere. A2780 cells were cultured in RMPI 1640 medium supplemented with 10% fetal calf serum, 2 mM glutamine, and 1% penicillin–streptomycin (Sigma-Aldrich). ID8 cells were cultured in high-glucose DMEM (4.5 g/L glucose) supplemented with 4% fetal calf serum, 2 mM glutamine, 1% penicillin–streptomycin (Sigma-Aldrich), and 1% ITS supplement (Sigma-Aldrich I3146). U251 cells were maintained in MEM (Sigma-Aldrich), 10% fetal bovine serum (Sigma-Aldrich), 1% penicillin/streptomycin (Invitrogene), and 2 mM glutamine. MCF7 cells were maintained in MEM (Sigma-Aldrich), 10% fetal bovine serum (Sigma-Aldrich), 1% penicillin/streptomycin (Invitrogen, Waltham, MA, USA), and 2 mM glutamine. Capan2 cells were maintained in MEM (Sigma-Aldrich), 10% fetal bovine serum (Sigma-Aldrich), 1% penicillin/streptomycin (Invitrogen), and 2 mM glutamine. Human primary dermal fibroblasts were cultured in low-glucose DMEM (1 g/L glucose) supplemented with 20% fetal calf serum, 2 mM glutamine, and 1% penicillin–streptomycin (Sigma-Aldrich).
as §1, §2

[3] = test system: A2780 cells; experiment: Annexin V-FITC, PI double staining (flow cytometry); type: cell-based, human; details: concentration corresponding to IC50, 2 h, 4 h or 48 h
Procedure: Annexin V–PI double staining was applied to assess apoptotic and necrotic cell death similar to [37, 38, 69]. A2780 cells were treated with the indicated compounds at the concentration corresponding to their IC50 value for 2, 4, and 48 h. The 4 and 48 h time points correspond to the time points for the MTT and SRB assays, while the 2 h time point reflects the optimum time point for the detection of apoptotic or necrotic cell death. Quadrants were set on the basis of the FITC and PI values observed for the vehicle-treated cells.

[4] = test system: A2780 cells; experiment: Western blotting of 4-hydroxy-nonenal (4HNE), oxidative stress marker; type: cell-based, human; details: concentration corresponding to IC50, 48 h
Procedure: The preparation of protein extracts, the separation of protein extracts in SDS-polyacrylamide gel electrophoresis, and the subsequent Western blotting were performed as described in [70] using the antibodies in Table 4. Enhanced chemiluminescence was developed using ChemiDoc Imager, (Bio-Rad, Hercules, CA, USA). Densitometry was performed using Image Lab Touch Software, Bio-Rad, Hercules, CA, USA).

[5] = test system: human primary skin fibroblasts; experiment: SRB proliferation assay (48 h) on primary fibroblasts; type: cell-based; details: for effect on SRB signal at 100 µM / effect in long-term SRB assay (in words): primary human fibroblasts
Procedure: as §3, §1, §2

[6] = Determination of the distribution coefficients (logD), n-octanol/PBS; type: physicochemical; details: n-octanol / PBS pH = 7.40
Procedure: Prior to the experiments, n-octanol was saturated with aqueous PBS solution (pH = 7.40) and vice versa. The corresponding complex (approximately 0.2–0.3 mg) was dissolved in a mixture of 2.50 mL of pre-saturated n-octanol and 2.50 mL of pre-saturated PBS buffer, and the mixture was vigorously stirred for 3 days. According to the NMR stability measurements, this time was necessary to reach equilibrium between the various ionic complex species. Due to the lipophilic/hydrophilic character of the complexes, those with benzoyl protection or the non-sugar derivative could mostly be found in the n-octanol, while the acetyl and non-protected complexes could be found in the aqueous PBS phase. The appropriate separated solution was centrifuged (ScanSpeed 406G instrument, 4000 RPM for 5 min), and the absorption of the “stock solution” was measured (VWR UV-1600PC Spectrophotometer, 270–420 nm). Then 2.00 mL of stock solution was stirred vigorously with 16.00 mL of pre-saturated, clean n-octanol or PBS solution. After 1 day, the phases were separated and centrifuged, and the absorption of the solution was measured again. From the absorption difference of the stock solutions, the distribution coefficient (D) was calculated according to the previously described formulae [66].

[7] = test system: ID8 cells; experiment: MTT reduction assay (4 h, rapid toxicity) on ID8 cells; type: cell-based
Procedure: as §3
(§4) The MTT reduction assay assesses the activity of mitochondrial complex I, and it was used to assess rapid toxicity. The MTT reduction assay was performed similarly to [67]. Cells were seeded in 96-well plates. The next day, cells were treated with the compounds for 4 h in the concentrations indicated in a cell incubator. At the end of treatment, MTT was added in 0.5 mg/mL final concentration, and cells were incubated at 37 °C in a cell incubator. Then, culture media was removed, the reduced MTT dye was resolved in dimethyl sulfoxide (DMSO), and plates were measured in a plate photometer (Thermo Scientific Multiscan GO spectrophotometer, Waltham, MA, USA) at 540 nm. On each plate, wells were designed to contain untreated/vehicle-treated cells. In calculations, the readings for these wells were considered as 1, and all readings were expressed relative to these values.

[8] = test system: U251 cells (glioblastoma model); experiment: SRB proliferation assay (48 h) on U251 cells; type: cell-based; details: nonlinear regression
Procedure: as §3, §1, §2

[9] = test system: ID8 cells; experiment: SRB proliferation assay (48 h) on ID8 cells; type: cell-based; details: for cytostatic activity in long-term SRB assay (in words): ID8 cells; for IC50 / ID8 Hill Slope: SRB, nonlinear regression, N/A = could not be calculated/had no effect
Procedure: as §3, §1, §2

[10] = test system: MCF7 cells (breast cancer); experiment: SRB proliferation assay (48 h) on MCF7 cells; type: cell-based; details: nonlinear regression
Procedure: as §3, §1, §2

[11] = test system: A2780 human ovarian carcinoma cells; experiment: SRB proliferation assay (48 h) on A2780 cells; type: cell-based; details: for cytostatic activity in long-term SRB assay (in words): A2780 cells, 100–0.0017 µM; for Hill slope (span over cell lines): SRB curves, A2780 and ID8 cells; for A2780 Hill Slope / IC50: SRB, nonlinear regression, N/A = could not be calculated/had no effect
Procedure: as §3, §1, §2

[12] = test system: human primary skin fibroblasts; experiment: MTT reduction assay (4 h, rapid toxicity) on primary fibroblasts; type: cell-based
Procedure: as §3, §4

[13] = test system: A2780 cells; experiment: SRB assay on A2780 cells with antioxidant cotreatment (GSH, NAC, MitoTEMPO, vitamin E, Trolox); type: cell-based, human; details: 48 h
Procedure: as §1

[14] = test system: A2780 human ovarian carcinoma cells; experiment: MTT reduction assay (4 h, rapid toxicity) on A2780 cells; type: cell-based
Procedure: as §3, §4

[15] = SRB, nonlinear regression, N/A = could not be calculated/had no effect

Row | IC50 [1] | IC50 [2] | logD [6] | IC50 [8] | IC50 [10] | IC50 [11] | SMILES | Capan2 Hill Slope [2] | proportions of PI-positive, annexin V-positive and double-positive cells [3] | expression of oxidative stress marker 4-hydroxy-nonenal (4HNE) [4] | U251 Hill Slope [8] | cytostatic activity in long-term SRB assay (in words) [9] | IC50 [9] | ID8 Hill Slope [9] | MCF7 Hill Slope [10] | cytostatic activity in long-term SRB assay (in words) [11] | Hill slope (span over cell lines) [11] | A2780 Hill Slope [11] | effect in short-term MTT assay, rapid toxicity (in words) [12] | effect of GSH and NAC cotreatment on the cytostatic effects of the complex [13] | effect in short-term MTT assay, rapid toxicity (in words) [14] | further results
1 | 1.38 µM | 2.18 µM | 2.85 | 2.82 µM | 1.29 µM | 0.9 µM | Cc1ccc(C(C)C)cc1.F[P-](F)(F)(F)(F)F.O=C(OCC1OC(n2cc(-c3ccccn3)nn2)C(OC(=O)c2ccccc2)C(OC(=O)c2ccccc2)C1OC(=O)c1ccccc1)c1ccccc1.[Cl][Ru+] (mixture of isomers) [Ru-2a] | 2.43 | did not largely increase | increase in the expression | 1.75 | cytostatic | 1.5 µM and 1.53 µM | 2.50 | 1.85 | cytostatic properties | 2–3 | 1.95 | no effect | attenuated the cytostatic effects | cytostatic properties | Fibroblast Hill Slope [5, 15]: 0.78; effect on SRB signal at 100 µM [5]: reduced the SRB signal; effect on MTT signal above 10 µM ([7]; above 10 µM concentration): reduced the MTT signal; effect of MitoTEMPO on the cytostatic effects of the complex [13]: did not modulate the effects; effect on MTT signal above 10 µM ([14]; above 10 µM concentration): reduced the MTT signal
2 | 6.18 µM | 3.27 µM | 2.41 | 4.17 µM | 3.74 µM | 6.19 µM | Cc1ccc(C(C)C)cc1.F[P-](F)(F)(F)(F)F.O=C(OCC1OC(c2n[n+]3c(o2)-c2cccc[n+]2[Ru-]3[Cl])C(OC(=O)c2ccccc2)C(OC(=O)c2ccccc2)C1OC(=O)c1ccccc1)c1ccccc1 (mixture of isomers) [Ru-4] | 1.81 | did not largely increase | increase in the expression | 2.46 | cytostatic | 5.66 µM | 3.04 | 2.01 | cytostatic properties | 2–3 | 2.62 | no effect | attenuated the cytostatic effects | cytostatic properties | effect in long-term SRB assay (in words) [5]: no effect; also recorded: no activity; effect of MitoTEMPO on the cytostatic effects of the complex [13]: did not modulate the effects
3 | 6.83 µM | 4.97 µM | 2.04 | 6.61 µM | 6.69 µM | 8.54 µM | Cc1ccc(C(C)C)cc1.F[P-](F)(F)(F)(F)F.O=C(OC1COC(c2n[n+]3c(o2)-c2cccc[n+]2[Ru-]3[Cl])C(OC(=O)c2ccccc2)C1OC(=O)c1ccccc1)c1ccccc1 (mixture of isomers) [Ru-6] | 1.66 | did not largely increase | increase in the expression | 2.13 | cytostatic | 6.76 µM | 3.59 | 2.13 | cytostatic properties | 2–3 | 3.74 | no effect | attenuated the cytostatic effects | cytostatic properties | Fibroblast Hill Slope [5, 15]: 3.52; IC50 ([5]; SRB, nonlinear regression, N/A = could not be calculated/had no effect, read-out: Fibroblast IC50): 24.6 µM; effect on SRB signal at 100 µM [5]: reduced the SRB signal; effect on MTT signal at 100 µM ([7]; 100 µM, Ru-4: not statistically significant): reduced the MTT signal; effect of MitoTEMPO on the cytostatic effects of the complex [13]: did not modulate the effects
4 | – | – | – | – | – | – | O=C(O[C@@H]1[C@@H](OC(=O)c2ccccc2)[C@H](c2nnc(-c3ccccn3)o2)OC[C@H]1OC(=O)c1ccccc1)c1ccccc1 [Complex L-6, 2-(2′,3′,4′-Tri-O-benzoyl-β-D-xylopyranosyl)-5-(pyridin-2-yl)-1,3,4-oxadiazole] | – | – | – | – | none of the corresponding ligands (L-2a, L-4, L-6, and L-8) had cytostatic properties | – | – | – | no biological activity; also recorded: none of the corresponding ligands (L-2a, L-4, L-6, and L-8) had cytostatic properties | – | – | – | – | no biological activity | effect in long-term SRB assay (in words) [5]: no effect
5 | – | – | – | – | – | – | O=C(OC[C@H]1O[C@@H](c2nnc(-c3ccccn3)o2)[C@H](OC(=O)c2ccccc2)[C@@H](OC(=O)c2ccccc2)[C@H]1OC(=O)c1ccccc1)c1ccccc1 [Complex L-8, 2-(2′,3′,4′,6′-Tetra-O-benzoyl-β-D-galactopyranosyl)-5-(pyridin-2-yl)-1,3,4-oxadiazole] | – | – | – | – | none of the corresponding ligands (L-2a, L-4, L-6, and L-8) had cytostatic properties | – | – | – | no biological activity; also recorded: none of the corresponding ligands (L-2a, L-4, L-6, and L-8) had cytostatic properties | – | – | – | – | no biological activity | effect in long-term SRB assay (in words) [5]: no effect
6 | – | – | – | – | – | – | CNCc1ccc(-c2[nH]c3cc(F)cc4c3c2CCNC4=O)cc1 [Rucaparib, rucaparib, reference compound] | – | – | – | – | – | – | – | – | – | – | – | – | – | – | cell proliferation (in words) ([1]; 3 µM): reduced cell proliferation
